No end group written: not given here.

One assay deals with T1, KISS1R (WT) (Homo sapiens, UniProt Q969F8).
T1 construct: expressed in transfected cells; host or cells: HEK293, transient transfection by electroporation
Nature of the assay: KP-10-induced calcium mobilization, wild-type receptor. The class given is cell-based. The note with it: HEK293, Fluo-4, mean ± S.E.M., n ≥ 3. On the technique in general: A change in cytosolic calcium serves as a functional read-out for many receptors and channels.

The next assay concerns the target T2, KISS1R mutants (Homo sapiens, UniProt Q969F8, E193A/H309A/Q122A).
T2 construct: expressed in transfected cells; host or cells: HEK293, transient transfection by electroporation
The experiment in a line: KP-10-induced calcium mobilization, receptor mutants. In kind it is cell-based. As to conditions: HEK293, Fluo-4, mean ± S.E.M., n ≥ 3.

The test system of a further assay is QRFPR. As to conditions: cited from earlier work. From the text: cDNA encoding the precursor or orthologue of 26RFa is detected in vertebrates, from fish[16], and phasianidae, to mammals. In humans, 26RFa and its N-terminal extended mature peptide 43RFa are extracted from the human brain, and mRNA of QRFPR is detected in the hypothalamus, vestibular nuclei, and other areas of the central nervous system. QRFPR is also detected in some peripheral organs[18],[19]. Both 26RFa and 43RFa are endogenous ligands for QRFPR (GPR103)[4],[18]. The amino acid sequences of 26RFa are conserved among mammalian species, with 26RFa from rats being slightly mor ... || Considerable efforts have been dedicated to elucidating the recognition mechanism of 26RFa by QRFPR. […] This segment served as a molecular scaffold for the development of low molecular weight peptides with enhanced potency and increased stability[21],[28]. […] Globally, the 26RFa segment (Gly20–Phe24) leans to TM2, but is far from TMs 5–7, leaving a large portion of unoccupied space lined by TMs 5–7 (Fig. 3a). Two glycines (Gly20, Gly21) are compactly packed into a crevice composed of residues on ECL1, ECL2, and the N-terminus (Fig. 3a). They moderately impact 26RFa activity, as substit ... || (+ 2 further places)

The next assay has as its system NPY1R and NPY4R. The note with it: cited from earlier work; for role of hydrogen bond of Tyr36 with Q^5.46 in activity: NPY1R and NPY4R. From the text: Specifically, Arg25 and Arg35 in 26RFa and NPY/PP are exposed to a conserved polar environment that includes residues E^45.52, T^5.39, and D/E^6.59 in QRFPR and NPYRs. However, subtle differences exist in the special binding interactions between these arginines and conserved polar residues (Fig. 4d–f). Side chains of Arg35 in NPY/PP form a conserved salt bridge with D^6.59 and a hydrogen bond with T^5.39 (NPY1R and NPY4R) or a salt bridge with E^45.52 (NPY2R) (Fig. 4e, f). In 26RFa, Arg25 retains its salt bridge with E203^45.52 but fails to build a salt bridge with E297^6.59 (Fig. 3b). It is p ... || Phe26 in 26RFa and Tyr36 in NPY/PP show distinct binding characteristics for QRFRP and NPYRs, respectively. […] (Fig. 4e). However, in NPY2R, this hydrogen bond is absent due to the substitution of glutamine with leucine at position 5.46, which lacks a hydrogen bond donor (Fig. 4c, f). Similarly, QRFPR also has a leucine at position 5.46, which cannot form a corresponding hydrogen bond with Phe26 in 26RFa. Furthermore, in contrast to the notable impact of Q^5.46 on the NP ...

The target of another assay is T3, PrRPR mutants (Homo sapiens, UniProt P49683, D302A/E213A/H321A/Q141A).
T3 construct: expressed in transfected cells; host or cells: HEK293, transient transfection by electroporation
T3 sequence (P49683 1-370 Q141A/E213A/D302A/H321A): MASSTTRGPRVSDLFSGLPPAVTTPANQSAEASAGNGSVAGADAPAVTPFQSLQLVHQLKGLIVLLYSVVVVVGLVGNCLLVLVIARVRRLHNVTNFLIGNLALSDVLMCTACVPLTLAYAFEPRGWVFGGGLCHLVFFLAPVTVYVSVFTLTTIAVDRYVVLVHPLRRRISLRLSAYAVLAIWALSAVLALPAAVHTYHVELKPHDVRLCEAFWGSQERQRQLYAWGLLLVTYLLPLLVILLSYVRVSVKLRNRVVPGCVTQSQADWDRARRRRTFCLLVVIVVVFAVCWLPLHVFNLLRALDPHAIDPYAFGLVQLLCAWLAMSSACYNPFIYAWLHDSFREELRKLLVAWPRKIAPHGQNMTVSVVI
Nature of the assay: PrRP-20-induced calcium mobilization, receptor mutants. The note with it: HEK293, Fluo-4, mean ± S.E.M., n ≥ 3. The class given is cell-based. The procedure:
(§1) The gene encoding the WT QRFPR, PrPRR, KISS1R, NPFF1R, or NPFF2R was subcloned into the pcDNA3.0 vector with the addition of an N-terminal HA tag. All of the mutations used for functional studies were generated by QuickChange PCR and verified by DNA sequencing.
(§2) HEK293 cells were obtained from ATCC (Manassas, VA, USA) and cultured in DMEM supplemented with 10% (v/v) FBS, 100 mg/L penicillin, and 100 mg/L streptomycin in 5% CO2 at 37 °C. For transient transfection, ~2.5 × 10^6 cells were mixed with 2 µg plasmids in 200 µL transfection buffer, and electroporation was carried out with a Scientz-2C electroporation apparatus (Scientz Biotech, Ningbo, China). The experiments were carried out 24 h after transfection.
(§3) For QRFPR, PrRPR, and KISS1R, HEK293 cells transfected with WT receptor or its mutants were seeded at a density of 4 × 10^4 per well into 96-well culture plates and incubated for 24 h at 37 °C in 5% CO2. For NPFF1R and NPFF2R, plasmids were transfected into HEK293 cells stably expressing Gα16. On the next day, cells were incubated with 2 μmol/L Fluo-4 AM in HBSS supplemented with 5.6 mmol/L D-glucose and 250 μmol/L sulfinpyrazone at 37 °C for 45 min. After washing, cells were added with 50 μL HBSS and incubated at room temperature for 10 min, then 25 μL agonist buffer was dispensed into the well using a FlexStation III microplate reader (Molecular Devices), and intracellular calcium change was recorded at an excitation wavelength of 485 nm and an emission wavelength of 525 nm. EC50 and Emax values for each curve were calculated by Prism 8.0 software (GraphPad Software).

A further assay deals with T4, PrRPR (WT) (Homo sapiens, UniProt P49683).
T4 construct: expressed in transfected cells; host or cells: HEK293, transient transfection by electroporation
T4 sequence (P49683 whole entry, species assumed): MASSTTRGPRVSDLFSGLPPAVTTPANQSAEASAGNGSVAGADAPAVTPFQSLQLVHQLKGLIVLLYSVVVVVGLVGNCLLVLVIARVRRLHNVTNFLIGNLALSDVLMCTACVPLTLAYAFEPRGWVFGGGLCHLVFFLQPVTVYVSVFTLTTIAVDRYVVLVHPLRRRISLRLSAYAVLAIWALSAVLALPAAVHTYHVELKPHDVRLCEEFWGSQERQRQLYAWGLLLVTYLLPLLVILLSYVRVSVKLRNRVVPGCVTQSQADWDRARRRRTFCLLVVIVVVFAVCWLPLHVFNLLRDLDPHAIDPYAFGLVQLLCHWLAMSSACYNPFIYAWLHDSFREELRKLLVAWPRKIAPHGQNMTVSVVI
Nature of the assay: PrRP-20-induced calcium mobilization, wild-type receptor. The class given is cell-based. As to conditions: HEK293, Fluo-4, mean ± S.E.M., n ≥ 3. The method, then:
as §1, §2
as §3, with “For NPFF1R and NPFF2R, plasmids were transfected into HEK293 cells stably expressing Gα16. On the next day, cells were incubated with 2 μmol/L Fluo-4 AM in HBSS supplemented with 5.6 mmol/L D-glucose and 250 μmol/L sulfinpyrazone at 37 °C for 45 min.” left out

T2 sequence (Q969F8 whole entry Q122A/E193A/H309A): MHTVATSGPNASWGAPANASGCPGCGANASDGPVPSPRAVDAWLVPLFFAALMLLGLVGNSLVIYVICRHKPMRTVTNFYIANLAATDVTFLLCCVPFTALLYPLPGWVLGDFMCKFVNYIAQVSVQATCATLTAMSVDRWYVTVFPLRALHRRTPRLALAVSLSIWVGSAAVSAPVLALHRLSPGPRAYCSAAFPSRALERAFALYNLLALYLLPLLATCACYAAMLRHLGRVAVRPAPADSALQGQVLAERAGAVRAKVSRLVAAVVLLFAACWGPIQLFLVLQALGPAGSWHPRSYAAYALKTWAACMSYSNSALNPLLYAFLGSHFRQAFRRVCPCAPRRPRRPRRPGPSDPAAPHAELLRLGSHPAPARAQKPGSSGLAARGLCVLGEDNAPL
T1 sequence (Q969F8 whole entry, species assumed): as the sequence (Q969F8 whole entry Q122A/E193A/H309A) above, with A122Q, A193E, A309H counted along it

Regarding `CC(C)C[C@H](NC(=O)CNC(=O)[C@H](Cc1ccccc1)NC(=O)[C@H](CO)NC(=O)[C@H](CC(N)=O)NC(=O)[C@H](Cc1c[nH]c2ccccc12)NC(=O)[C@H](CC(N)=O)NC(=O)[C@@H](N)Cc1ccc(O)cc1)C(=O)N[C@@H](CCCNC(=N)N)C(=O)N[C@@H](Cc1ccccc1)C(N)=O` [KP-10], the EC50 was 4.27 nM on KISS1R (WT), 10 nM at KISS1R mutants (KISS1R E193^45.52A), 17.4 nM on KISS1R mutants (KISS1R H309^7.39A) and 5.13 nM on KISS1R mutants (KISS1R Q122^3.32A). Moreover, the Emax on KISS1R (WT) is 100 ± 1.2%; at KISS1R mutants (HEK293, KISS1R E193^45.52A), 126 ± 6.2%; on KISS1R mutants (HEK293, KISS1R H309^7.39A), 89.6 ± 1%; at KISS1R mutants (HEK293, KISS1R Q122^3.32A) it was 12.8 ± 0.76%.

On to “26RFa (1–18): N-terminal segment of native 26RFa lacking the C-terminal octapeptide (QDEGSEATGFLPAAGEKT; QRF-amide; UniProt P83859 91-108, looked up, fragment)”, for which, in the assay with QRFPR (26RFa (1–18), lacks the C-terminal octapeptide), the “ability to activate the receptor” value is listed as “loses its ability to activate the receptor”.

With Neuropeptide Y [NPY], in the assay with NPY1R and NPY4R, the “role of hydrogen bond of Tyr36 with Q^5.46 in activity” value was “crucial for NPY/PP activity”; the “role of amide-surrounding residues (C^2.57, T^2.61, Q^3.32, Q/H^7.39) in activity” value is “critical for 26RFa and NPY/PP activities”.

On to “TPDINPAWYASRGIRPVGRF-NH2 [PrRP-20, prolactin-releasing peptide]”, for which the Emax is 124 ± 8.9% on PrRPR mutants (HEK293, PrRPR D302^6.59A); 27.7 ± 0.37% at PrRPR mutants (HEK293, PrRPR E213^45.52A); 19.7 ± 0.75% at PrRPR mutants (HEK293, PrRPR H321^7.39A); 49.2 ± 1.2% at PrRPR mutants (HEK293, PrRPR Q141^3.32A); 100 ± 3.9% on PrRPR (WT). The EC50 is 11.2 nM at PrRPR mutants (PrRPR D302^6.59A); 115 nM on PrRPR mutants (PrRPR E213^45.52A); 14.8 nM on PrRPR mutants (PrRPR H321^7.39A); 1.05 nM on PrRPR mutants (PrRPR Q141^3.32A); 1.1 nM on PrRPR (WT).

On to “26RFa from rats: 26RFa from rats; rat 26RFa (GenScript) used for the complex”, for which the “potency, rat vs human 26RFa” value with QRFPR (calcium mobilization) is “slightly more potent than that from humans”.

On to pancreatic polypeptide [PP], for which, in the assay on NPY1R and NPY4R, the “role of hydrogen bond of Tyr36 with Q^5.46 in activity” value is listed as “crucial for NPY/PP activity”; the “role of amide-surrounding residues (C^2.57, T^2.61, Q^3.32, Q/H^7.39) in activity” value is “critical for 26RFa and NPY/PP activities”.

One may read the EC50 as the concentration at which the effect is half-maximal. Usually Emax stands for the maximal effect, on the per cent scale that the assay sets.

Source of the values: article PMC11148045, “Structural basis for recognition of 26RFa by the pyroglutamylated RFamide peptide receptor” (Cell Discovery, 2024).
